From PMC6287599, “2,6-Bis(2-Benzimidazolyl)Pyridine (BBP) Is a Potent and Selective Inhibitor of Small Conductance Calcium-Activated Potassium (SK) Channels” (Frontiers in Pharmacology, 2018) come the findings set out here.

A word on the inhibition: it is the change of the read-out against control, counted positive when it falls.

The test deals with hSK2 (Homo sapiens, UniProt Q9H2S1). Kind of test: Manual whole cell patch clamp, HEK293 transiently transfected with hSK2. Format: cell-based. The note with it: BBP 1 μM, compared to positive control bicuculline methiodide 100 μM, n = 5, read-out: Inhibition of hSK2 current. Here is the method: HEK293 cells were transiently co-transfected with the plasmid of interest (hBK, hSK1, hSK2, hSK3 WT, rSK3 H491N, or hIK) and eGFP using standard Lipofectamine™ 2000 (Thermo Fisher Scientific, Waltham, Massachussets, USA) transfection protocols. After transfection, cells were incubated overnight before the experiments.
Manual patch clamp experiments were performed at room temperature in the whole cell configuration with a HEKA EPC9 amplifier and the Patchmaster software (HEKA Elektronik, Ludwigshafen, Germany). All currents were elicited every 2 s using an incremental 200 ms voltage-ramp protocol starting at −80 mV and finishing at +80 mV from a holding potential of 0 mV. […] Currents were measured using the same solutions as the ones used for automated patch clamp, with symmetrical potassium concentrations and a free intracellular calcium concentration of 400 nM. […]
To assess the effect of BBP on other calcium-activated potassium channels (hBK, hSK3 WT, rSK3 H491N, and hIK), each individual current was first normalized to its cell size using membrane's capacitance (pA/pF) before statistical analysis. […] Statistical significance between saline and the effect of both BBP and the corresponding reference compound was determined for each channel using one-way ANOVA analysis. […]
For orientation: In patch-clamp work, channel activity is measured electrically.

Turning to `c1cc(-c2nc3ccccc3[nH]2)nc(-c2nc3ccccc3[nH]2)c1` [BBP, 2,6-Bis(2-benzimidazolyl)pyridine], the inhibition at 1 µM was determined as 94.8 ± 2.1%.
